In BindingDB's records for doi:10.1016/j.bmcl.2011.09.133 (Genzyme, 2011):

Assay: Antagonist activity against human CCR5 assessed as inhibition of HIV1 gp120-induced cell-cell fusion between human HeLa P4/R5 cells and CHO-tat10 cells expressing HIV-1JRFL viral envolop protein after 20 hrs by beta-galactosidase reporter gene assay

Row | Structure (SMILES) | IC50
1 | CC(CCNC(=O)c1c(Cl)cncc1Cl)N1CCC(N(Cc2cccc(C#N)c2)c2ccc(Br)cc2)CC1 (stereo unspecified) | 8 nM
2 | COc1ccc(N(Cc2cccc(C#N)n2)C2CCN([C@H](C)CCNC(=O)c3c(C)cc(F)nc3C)CC2)cc1 | 0.7 nM
3 | CC(CCNC(=O)c1c(Cl)cncc1Cl)N1CCC(N(Cc2ccccc2)c2ccc(OC(F)(F)F)cc2)CC1 (stereo unspecified) | 26 nM
4 | COc1ccc(N(Cc2cccc(C#N)n2)C2CCN([C@H](C)CCNC(=O)c3c(C)cc(C#N)nc3C)CC2)cc1 | 0.3 nM
5 | CC(CCNC(=O)c1c(Cl)cncc1Cl)N1CCC(N(Cc2ccccc2)c2ccc(C(F)(F)F)cc2)CC1 (stereo unspecified) | 34 nM
6 | COc1ccc(N(Cc2cnccc2C)C2CCN([C@H](C)CCNC(=O)c3c(C)cc(F)nc3C)CC2)cc1 | 0.3 nM
7 | COc1ccc(N(Cc2cccc(C#N)n2)C2CCN([C@H](C)CCNC(=O)c3c(C)cc(Cl)nc3C)CC2)cc1 | 0.3 nM
8 | CC(CCNC(=O)c1c(Cl)cncc1Cl)N1CCC(N(Cc2ccccc2)c2ccc(Oc3ccc(C(=O)O)cc3)cc2)CC1 (stereo unspecified) | 11 nM
9 | CC(CCNC(=O)c1c(Cl)cncc1Cl)N1CCC(N(Cc2cccc(C#N)c2)c2ccc(C#N)cc2)CC1 (stereo unspecified) | 12 nM
10 | COC(=O)c1ccc(N(Cc2ccccc2)C2CCN(C(C)CCNC(=O)c3c(Cl)cncc3Cl)CC2)cc1 (stereo unspecified) | 90 nM
11 | CC(CCNC(=O)c1c(Cl)cncc1Cl)N1CCC(N(Cc2cccc(Cl)c2)c2ccc(Br)cc2)CC1 (stereo unspecified) | 30 nM
12 | CC(CCNC(=O)c1c(Cl)cncc1Cl)N1CCC(N(Cc2ccccc2)c2ccc(C(=O)N(C)C)cc2)CC1 (stereo unspecified) | 116 nM
13 | COCCOc1ccc(N(Cc2cnccc2C)C2CCN([C@H](C)CCNC(=O)c3c(C)cc(C#N)nc3C)CC2)cc1 | 0.8 nM
14 | COc1ccc(N(Cc2cnccc2C)C2CCN([C@H](C)CCNC(=O)c3c(C)ccnc3Cl)CC2)cc1 | 0.7 nM
15 | COc1ccc(N(Cc2cccnc2)C2CCN([C@H](C)CCNC(=O)c3c(C)cc(F)nc3C)CC2)cc1 | 1.6 nM
16 | COc1ccc(N(Cc2ccccc2)C2CCN(C(C)CCNC(=O)c3c(Cl)cncc3Cl)CC2)cc1 (stereo unspecified) | 50 nM
17 | COc1ccc(N(Cc2cccnc2)C2CCN([C@H](C)CCNC(=O)c3c(C)cc(Cl)nc3C)CC2)cc1 | 1.5 nM
18 | COc1ccc(N(Cc2cnccc2C)C2CCN([C@H](C)CCNC(=O)c3c(C)cncc3C)CC2)cc1 | 7 nM

Row | Structure (SMILES) | IC50
19 | COc1ccc(N(Cc2cccc(C#N)c2)C2CCN(C(C)CCNC(=O)c3c(Cl)cncc3Cl)CC2)cc1 (stereo unspecified) | 2 nM
20 | COc1cccc(CN(c2ccc(Br)cc2)C2CCN(C(C)CCNC(=O)c3c(Cl)cncc3Cl)CC2)c1 (stereo unspecified) | 387 nM
21 | CC(CCNC(=O)c1c(Cl)cncc1Cl)N1CCC(N(Cc2ccccc2)c2ccc(Br)cc2)CC1 (stereo unspecified) [N-(3-(4-(benzyl(4-bromophenyl)amino)piperidin-1-yl)butyl)-3,5-dichloroisonicotinamide] | 49 nM
22 | COc1ccc(N(Cc2cnccc2C)C2CCN([C@H](C)CCNC(=O)c3c(C)ccnc3C)CC2)cc1 | 2.4 nM
23 | CC(CCNC(=O)c1c(Cl)cncc1Cl)N1CCC(N(Cc2cccc(C#N)c2)c2ccc(C(F)(F)F)cc2)CC1 (stereo unspecified) | 3 nM
24 | CC(CCNC(=O)c1c(Cl)cncc1Cl)N1CCC(N(Cc2ccccc2)c2ccc(C#N)cc2)CC1 (stereo unspecified) | 19 nM
25 | COc1ccc(N(Cc2cnccc2C)C2CCN([C@H](C)CCNC(=O)c3cnc(Cl)cc3C)CC2)cc1 | 12.3 nM
26 | COc1ccc(N(Cc2cnccc2C)C2CCN([C@H](C)CCNC(=O)c3c(C)cc(C(=O)NC(C)C)nc3C)CC2)cc1 | 0.09 nM
27 | COCCOc1ccc(N(Cc2cnccc2C)C2CCN([C@H](C)CCNC(=O)c3c(C)cc(Cl)nc3C)CC2)cc1 | 0.6 nM
28 | Cc1ccncc1CN(c1ccc(N2CCOCC2)cc1)C1CCN([C@H](C)CCNC(=O)c2c(C)cc(Cl)nc2C)CC1 | 1590 nM
29 | CC(CCNC(=O)c1c(Cl)cncc1Cl)N1CCC(N(Cc2cccc(C#N)c2)c2ccc(OC(F)(F)F)cc2)CC1 (stereo unspecified) | 3 nM
30 | Cc1ccncc1CN(c1ccc(OCC(N)=O)cc1)C1CCN([C@H](C)CCNC(=O)c2c(C)cc(C#N)nc2C)CC1 | 0.98 nM
31 | Cc1ccncc1CN(c1ccc([S+](C)[O-])cc1)C1CCN([C@H](C)CCNC(=O)c2c(C)ncnc2C)CC1 (stereo partly specified) | 130 nM
32 | COc1ccc(N(Cc2cnccc2C)C2CCN([C@@H](C)CCNC(=O)c3c(C)cc(Cl)nc3C)CC2)cc1 | 40 nM
33 | Cc1ccncc1CN(c1ccccc1)C1CCN([C@H](C)CCNC(=O)c2c(C)cc(C#N)nc2C)CC1 | 7 nM
34 | COc1ccc(N(Cc2cnccc2C)C2CCN([C@H](C)CCNC(=O)c3c(C)cc(C#N)nc3C)CC2)cc1 | 0.3 nM
35 | COCCOc1ccc(N(Cc2cnccc2C)C2CCN([C@H](C)CCNC(=O)c3c(C)cc(F)nc3C)CC2)cc1 | 1.3 nM
36 | COc1ccc(N(Cc2cnccc2C)C2CCN([C@H](C)CCNC(=O)c3c(C)cc(Cl)nc3C)CC2)cc1 | 0.2 nM
